According to PubChem BioAssay (NCI):
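48-hour exposure; five concentrations; linearly interpolated endpoints. TGI denotes the concentration required for complete inhibition of growth.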

Experiments:
Test in all cases: DTP human tumour cell line panel, 48 h
[1] = test system: HOP-92 NSCLC
[2] = test system: SF-295 CNS
[3] = test system: DMS 114 small cell lung
[4] = test system: M14 melanoma
[5] = test system: OVCAR-4 ovarian
[6] = test system: DMS 273 small cell lung
[7] = test system: A498 renal
[8] = test system: UACC-62 melanoma
[9] = test system: COLO 205 colon
[10] = test system: CAKI-1 renal
[11] = test system: RXF 393 renal
[12] = test system: NCI-H23 lung
[13] = test system: HT29 colon
[14] = test system: SK-OV-3 ovarian
[15] = test system: SF-539 CNS
[16] = test system: UACC-257 melanoma
[17] = test system: OVCAR-8 ovarian
[18] = test system: KM12 colon
[19] = test system: OVCAR-5 ovarian
[20] = test system: SK-MEL-28 melanoma
[21] = test system: SNB-19 CNS
[22] = test system: OVCAR-3 ovarian
[23] = test system: U251 CNS
[24] = test system: SN12C renal
[25] = test system: SF-268 CNS
[26] = test system: RXF-631 renal
[27] = test system: EKVX NSCLC
[28] = test system: 786-0 renal
[29] = test system: HOP-62 NSCLC
[30] = test system: XF 498 CNS
[31] = test system: SK-MEL-5 melanoma
[32] = test system: HOP-18 NSCLC
[33] = test system: SNB-75 CNS
[34] = test system: LOX IMVI melanoma
[35] = test system: K-562 leukemia
[36] = test system: ACHN renal
[37] = test system: HCT-15 colon
[38] = test system: NCI-H226 lung
[39] = test system: HL-60(TB) leukemia
[40] = test system: NCI-H522 lung
[41] = test system: LXFL 529 NSCLC
[42] = test system: IGROV1 ovarian
[43] = test system: SW-620 colon
[44] = test system: SNB-78 CNS
[45] = test system: KM20L2 colon
[46] = test system: NCI-H460 lung
[47] = test system: RPMI-8226 leukemia
[48] = test system: TK-10 renal
[49] = test system: MALME-3M melanoma
[50] = test system: CCRF-CEM leukemia
[51] = test system: MOLT-4 leukemia
[52] = test system: UO-31 renal
[53] = test system: SR leukemia
[54] = test system: M19-MEL melanoma
[55] = test system: SK-MEL-2 melanoma
[56] = test system: DLD-1 colon
[57] = test system: HCC-2998 colon
[58] = test system: HCT-116 colon
[59] = test system: A549 NSCLC

Measured: TGI

O=C1NC2OCC(O)C(O1)C2O (configuration not stated)
> 100 µM: [1] | [2] | [3] | [4] | [5] | [6] | [7] | [8] | [9] | [10] | [11] | [12] | [13] | [14] | [15] | [16] | [17] | [18] | [19] | [20] | [21] | [22] | [23] | [24] | [25] | [26] | [27] | [28] | [29] | [30] | [31] | [32] | [33] | [34] | [35] | [36] | [37] | [38] | [39] | [40] | [41] | [42] | [43] | [44] | [45] | [46] | [47] | [48] | [49] | [50] | [51] | [52] | [53] | [54] | [55] | [56]

Cc1cc2c(cc1C)N1Cc3c(ccc(C)c3C)N(C2)C1 (tested in a mixture with another compound)
> 100 µM: [2] | [3] | [57] | [4] | [5] | [6] | [8] | [9] | [11] | [12] | [13] | [14] | [15] | [17] | [18] | [20] | [21] | [22] | [23] | [58] | [25] | [27] | [28] | [29] | [30] | [31] | [32] | [33] | [34] | [35] | [38] | [59] | [39] | [40] | [41] | [42] | [43] | [44] | [45] | [46] | [47] | [48] | [50] | [51] | [54] | [56]
